Structures are written as SMILES. Where two headings read alike, the source gives them in different places.

Data set [1] addresses T1, GSK-3β (AA 1-420) (Homo sapiens, UniProt P49841).
T1 construct: GSK-3β (AA 1-420)
Nature of the data set: Ki determination for the inhibition of GSK-3 (coupled enzyme system). The format is biochemical. The conditions noted are these: 20 μM ATP, 300 μM peptide, 20 nM GSK-3β, 30° C. An outline of the steps: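 Ki values come from reaction rates over 10 min at 30 °C as a function of inhibitor concentration (12-point titration, 0.002–30 μM, 10 min preincubation). GSK-3β (AA 1-420, 20 nM) phosphorylated 300 μM primed peptide with 20 μM ATP; ADP formation followed by coupled NADH oxidation, pH 7.5.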

For data set [2], the target named is T2, Aurora-2 (Homo sapiens, UniProt O14965).
T2 sequence (O14965 1-403): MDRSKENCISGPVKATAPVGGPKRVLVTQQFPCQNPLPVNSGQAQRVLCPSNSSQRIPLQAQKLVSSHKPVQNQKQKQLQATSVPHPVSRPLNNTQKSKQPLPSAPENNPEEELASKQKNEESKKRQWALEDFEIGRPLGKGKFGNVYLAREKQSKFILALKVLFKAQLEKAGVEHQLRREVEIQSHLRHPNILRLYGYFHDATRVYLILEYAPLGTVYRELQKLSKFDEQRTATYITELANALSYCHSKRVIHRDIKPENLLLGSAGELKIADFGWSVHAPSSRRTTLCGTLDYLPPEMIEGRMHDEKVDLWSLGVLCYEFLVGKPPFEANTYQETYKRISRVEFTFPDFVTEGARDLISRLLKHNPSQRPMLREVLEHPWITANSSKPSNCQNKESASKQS
Nature of the data set: Ki determination for the inhibition of Aurora-2 (coupled enzyme assay). To be noted: 70 nM Aurora-2, peptide LRRASLG, 30° C. The format is biochemical. An outline of the steps:
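Ki came from reaction rates plotted against inhibitor concentration, with rates taken as A340 decrease over 5 min at 30° C. Enzyme (70 nM final) was added after 10 min compound preincubation; stock buffer held […], 800 μM LRRASLG, PK/LDH coupling, pH 7.5.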

Data set [3] has as its target T3, human Src kinase (Homo sapiens, UniProt P12931).
T3 construct: full length recombinant human Src kinase; purchased Upstate Biotechnology 14-117; host or cells: baculo viral cells (baculovirus expression system)
Nature of the data set: SRC inhibition assay (radioactivity-based or spectrophotometric assay). The format is biochemical. The conditions noted are these: assay A or B not specified. The method, then: The compounds were evaluated as inhibitors of human Src kinase using either a radioactivity-based assay or spectrophotometric assay. The compounds were assayed as inhibitors of full length recombinant human Src kinase (from Upstate Biotechnology, cat. no. 14-117) expressed and purified from baculo viral cells. […] P-0275). […] In a typical assay, all the reaction components with the exception of ATP were pre-mixed and aliquoted into assay plate wells. Inhibitors dissolved in DMSO were added to the wells to give a final DMSO concentration of 2.5%. The assay plate was incubated at 30° C. for 10 min before initiating the reaction with ^33P-ATP. After 20 min of reaction, the reactions were quenched with 150 μl of 10% trichloroacetic acid (TCA) containing 20 mM Na3PO4. The quenched samples were then transferred to a 96-well filter plate (Whatman, UNI-Filter GF/F Glass Fiber Filter, cat no. 7700-3310) installed on a filter plate vacuum manifold. Filter plates were washed four times with 10% TCA containing 20 mM Na3PO4 and then 4 times with methanol. 200 μl of scintillation fluid was then added to each well. The plates were sealed and the amount of radioactivity associated with the filters was quantified on a TopCount scintillation counter. The radioactivity incorporated was plotted as a function of the inhibitor concentration. The data was fitted to a competitive inhibition kinetics model to get the Ki for the compound. The ADP produced from ATP by the human recombinant Src kinase-catalyzed phosphorylation of poly Glu-Tyr substrate was quanitified using a coupled enzyme assay (Fox et al (1998) Protein Sci 7, 2249). In this assay one molecule of NADH is oxidised to NAD for every molecule of ADP produced in the kinase reaction. The disappearance of NADH can be conveniently followed at 340 nm. […] In a typical assay, all the reaction components with the exception of ATP were pre-mixed and aliquoted into assay plate wells. Inhibitors dissolved in DMSO were added to the wells to give a final DMSO concentration of 2.5%. […] The absorbance change at 340 nm with time, the rate of the reaction, was monitored on a molecular devices plate reader. The data of rate as a function of the inhibitor concentration was fitted to compettive inhibition kinetics model to get the Ki for the compound.

T1 sequence (P49841 whole entry, the tested form may be a part): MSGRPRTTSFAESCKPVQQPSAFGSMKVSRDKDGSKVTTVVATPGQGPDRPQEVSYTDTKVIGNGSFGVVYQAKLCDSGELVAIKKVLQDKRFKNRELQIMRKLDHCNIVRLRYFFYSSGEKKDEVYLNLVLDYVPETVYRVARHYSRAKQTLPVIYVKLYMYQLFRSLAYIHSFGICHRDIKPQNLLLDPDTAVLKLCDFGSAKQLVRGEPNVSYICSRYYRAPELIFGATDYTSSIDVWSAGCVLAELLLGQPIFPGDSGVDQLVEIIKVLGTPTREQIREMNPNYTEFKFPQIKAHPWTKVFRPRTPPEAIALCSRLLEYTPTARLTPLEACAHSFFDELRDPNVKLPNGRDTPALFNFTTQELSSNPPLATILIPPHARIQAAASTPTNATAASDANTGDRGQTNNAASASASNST
T3 sequence (P12931 whole entry): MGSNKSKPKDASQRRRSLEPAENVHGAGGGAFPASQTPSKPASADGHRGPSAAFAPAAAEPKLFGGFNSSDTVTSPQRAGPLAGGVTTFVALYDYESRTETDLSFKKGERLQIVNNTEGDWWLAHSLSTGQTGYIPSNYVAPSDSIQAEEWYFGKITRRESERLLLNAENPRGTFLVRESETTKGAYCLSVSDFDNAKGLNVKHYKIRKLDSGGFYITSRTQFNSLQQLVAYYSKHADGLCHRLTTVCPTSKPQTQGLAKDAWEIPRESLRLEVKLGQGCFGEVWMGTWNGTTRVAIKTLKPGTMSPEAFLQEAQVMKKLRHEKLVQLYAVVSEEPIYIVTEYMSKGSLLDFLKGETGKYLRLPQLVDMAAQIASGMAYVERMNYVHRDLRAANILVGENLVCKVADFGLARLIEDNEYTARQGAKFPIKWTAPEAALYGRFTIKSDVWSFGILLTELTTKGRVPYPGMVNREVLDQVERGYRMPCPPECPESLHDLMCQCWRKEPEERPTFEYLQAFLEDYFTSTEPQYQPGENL

For `Cc1cc(Nc2nc(-c3ccccc3)nc3ccccc23)[nH]n1` [III-31, (5-Methyl-2H-pyrazol-3-yl)-(2-phenyl-quinazolin-4-yl)-amine], the inhibitory constant (Ki) in data set [1], in data set [2] and in data set [3] (read-out: Ki value on SRC) was below 0.1 µM in each case.
Turning to `Cc1cc(Nc2nc(-c3ccc(I)cc3)nc3ccccc23)[nH]n1` [III-32, [2-(4-Iodophenyl)-quinazolin-4-yl]-(5-methyl-2H-pyrazol-3-yl)-amine], the inhibitory constant (Ki) in data set [2] and in data set [3] (read-out: Ki value on SRC) was below 0.1 µM in each case.
With `Cc1cc(Nc2nc(-c3ccc(Cl)c(Cl)c3)nc3ccccc23)[nH]n1` [III-33, [2-(3,4-Dichlorophenyl)-quinazolin-4-yl]-(5-methyl-2H-pyrazol-3-yl)-amine], the melting point stood at 274 °C. The compound also showed a Ki in data set [1] below 0.1 µM. In data set [2], this compound registered a Ki below 0.1 µM. Also, in data set [3] (read-out: Ki value on SRC), the Ki was below 0.1 µM.
As for `Clc1ccc(-c2nc(Nc3cc(C4CC4)n[nH]3)c3ccccc3n2)cc1` [III-42, [2-(4-Chlorophenyl)-quinazolin-4-yl]-(5-cyclopropyl-2H-pyrazol-3-yl)-amine], the Ki in data set [1], in data set [2] and in data set [3] (read-out: Ki value on SRC) was below 0.1 µM in each case.
As to `Cc1cc(Nc2nc(-c3ccc(N(C)C)cc3)nc3ccccc23)[nH]n1` [III-44, [2-(4-Dimethylaminophenyl)-quinazolin-4-yl]-(5-methyl-2H-pyrazol-3-yl)-amine], the figures for the Ki in data set [1], in data set [2] and in data set [3] (read-out: Ki value on SRC) were 0.1 to 1 µM, below 0.1 µM and below 0.1 µM, respectively.
Regarding `Cc1cc(Nc2nc(-c3ccc(-c4ccccc4)cc3)nc3ccccc23)[nH]n1` [III-47, (2-Biphenyl-4-yl-quinazolin-4-yl)-(5-methyl-2H-pyrazol-3-yl)-amine], the inhibition constant (Ki) in data set [1], in data set [2] and in data set [3] (read-out: Ki value on SRC) was below 0.1 µM each time.
Regarding `C#Cc1ccc(-c2nc(Nc3cc(C)n[nH]3)c3ccccc3n2)cc1` [III-48, [2-(4-Ethynylphenyl)-quinazolin-4-yl]-(5-methyl-2H-pyrazol-3-yl)-amine], the inhibition constant (Ki) in data set [1], in data set [2] and in data set [3] (read-out: Ki value on SRC) was below 0.1 µM in each case.
The compound `COCc1cc(Nc2nc(-c3ccccc3)nc3ccccc23)[nH]n1` [III-75, (5-Methoxymethyl-2H-pyrazol-3-yl)-(2-phenyl-quinazolin-4-yl)-amine] returned a melting point of 190 to 191 °C. In data set [1], this compound yielded an inhibition constant Ki below 0.1 µM. Also, the Ki in data set [2] lay in the range of 0.1 to 1 µM.
On the same counts, the results for `COCCCc1cc(Nc2nc(-c3ccccc3)nc3ccccc23)[nH]n1` [III-77, [-(3-Methoxyprop-1-yl)-2H-pyrazol-3-yl]-(2-phenyl-quinazolin-4-yl)-amine] are 169 to 170 °C, below 0.1 µM and below 0.1 µM.
In turn, `NCCCc1cc(Nc2nc(-c3ccccc3)nc3ccccc23)[nH]n1` [III-79, [5-(3-Aminoprop-1-yl)-2H-pyrazol-3-yl]-(2-phenyl-quinazolin-4-yl)-amine] came in with a melting point of 205 to 207 °C. For the same compound, the Ki in data set [2] fell in the range of 1 to 20 µM. Also, the Ki in data set [3] (read-out: Ki value for SRC) was 1 to 6 µM.
In the case of `Brc1cn[nH]c1Nc1nc(-c2ccccc2)nc2ccccc12` [III-101, (4-Bromo-2H-pyrazol-3-yl)-(2-phenyl-quinazolin-4-yl)-amine], the melting point was 189 °C. Also, in data set [1], the Ki is 1 to 20 µM. Besides, the Ki in data set [2] is 1 to 20 µM.
With `Cc1n[nH]c(Nc2nc(-c3ccccc3)nc3ccccc23)c1Br` [III-102, (4-Bromo-5-methyl-2H-pyrazol-3-yl)-(2-phenyl-quinazolin-4-yl)-amine], the melting point was in the range of 183 to 185 °C. The compound further came in with an inhibition constant (Ki) in data set [1] of 0.1 to 1 µM. This compound also returned a Ki in data set [2] of 0.1 to 1 µM.
`N#Cc1cn[nH]c1Nc1nc(-c2ccccc2)nc2ccccc12` [III-103, (4-Cyano-2H-pyrazol-3-yl)-(2-phenyl-quinazolin-4-yl)-amine] displayed a melting point above 250 °C. Further, the Ki in data set [1] lay within 1 to 20 µM. The Ki in data set [2] is 1 to 20 µM.
`Cc1cc(Nc2nc(N3CCNCC3)nc3ccccc23)[nH]n1` [III-105, (5-Methyl-2H-pyrazol-3-yl)-(2-piperazin-1-yl-quinazolin-4-yl)-amine] gave a melting point of 179 to 181 °C. In data set [1], this compound came in with a Ki of 0.1 to 1 µM. In addition, the Ki in data set [2] lay in the range of 0.1 to 1 µM.
`Cc1cc(Nc2nc(N3CCC(C)CC3)nc3ccccc23)[nH]n1` [III-106, [2-(4-Methylpiperidin-1-yl)-quinazolin-4-yl]-(5-methyl-2H-pyrazol-3-yl)-amine]: the melting point was 148 to 150 °C. For the same compound, the inhibitory constant (Ki) in data set [1] was below 0.1 µM. The same compound came in with a Ki in data set [2] below 0.1 µM.
In turn, `Cc1cc(Nc2nc(N3CCN(C)CC3)nc3ccccc23)[nH]n1` [III-107, [2-(4-Methylpiperazin-1-yl)-quinazolin-4-yl]-(5-methyl-2H-pyrazol-3-yl)-amine] showed a melting point of 105 to 107 °C. The compound also returned a Ki in data set [1] of 0.1 to 1 µM. In data set [2], this compound registered an inhibitory constant (Ki) of 0.1 to 1 µM.
For the compound `Cc1cc(Nc2nc(N3CCC(CCO)CC3)nc3ccccc23)[nH]n1` [III-110], the melting point is 175 °C. In data set [1], this compound gave an inhibition constant (Ki) of 0.1 to 1 µM. The compound also came in with a Ki in data set [2] below 0.1 µM.
Taken in the same sequence, the figures for `Cc1cc(Nc2nc(N3CCC4(CC3)OCCO4)nc3ccccc23)[nH]n1` [III-112, [2-(1,4-Dioxa-8-aza-spiro[4,5]dec-8-yl)-quinazolin-4-yl]-(5-methyl-2H-pyrazol-3-yl)-amine] were 191 °C, 0.1 to 1 µM and below 0.1 µM.
In turn, `Cc1cc(Nc2nc(N3CCC(O)CC3)nc3ccccc23)[nH]n1` [III-114, [2-(4-Hydroxypiperidin-1-yl)-quinazolin-4-yl]-(5-methyl-2H-pyrazol-3-yl)-amine] showed a melting point of 123 °C. The compound also showed a Ki in data set [1] of 0.1 to 1 µM. In data set [2], the Ki was below 0.1 µM.
Taken in the same sequence, the figures for `c1ccc2c(c1)CN(c1nc(Nc3cc(C4CC4)n[nH]3)c3ccccc3n1)C2` [III-116, (5-Cyclopropyl-2H-pyrazol-3-yl)-[2-(1,3-dihydro-isoindol-2-yl)-quinazolin-4-yl]-amine] were 237 °C, below 0.1 µM and below 0.1 µM.
On the same counts, the results for `c1ccc2c(c1)CCN2c1nc(Nc2cc(C3CC3)n[nH]2)c2ccccc2n1` [III-119, (5-Cyclopropyl-2H-pyrazol-3-yl)-[2-(2,3-dihydro-indol-1-yl)-quinazolin-4-yl]-amine] are 150 to 153 °C, below 0.1 µM and below 0.1 µM.
On the same counts, the results for `c1ccc2c(c1)CCCN2c1nc(Nc2cc(C3CC3)n[nH]2)c2ccccc2n1` [III-121, (5-Cyclopropyl-2H-pyrazol-3-yl)-[2-(3,4-dihydro-2H-quinolin-1-yl)-quinazolin-4-yl]-amine] are 137 to 145 °C, below 0.1 µM and below 0.1 µM.
As to `c1ccc(-c2nc(Nc3ncn[nH]3)c3ccccc3n2)cc1` [IX-154, (2-Phenyl-quinazolin-4-yl)-(2H-[1,2,4]triazol-3-yl)-amine], the melting point was in the range of 266 to 267 °C. In data set [1], the inhibitory constant (Ki) was in the range of 0.1 to 1 µM. In data set [2], this compound had an inhibition constant Ki of 1 to 20 µM.

As usually defined, the Ki is the dissociation constant of the complex between target and ligand, obtained from inhibition or displacement. For orientation: melting point means the temperature, or range, at which the solid turns liquid.

For the origin of these results see patent US6610677B2, “Pyrazole compounds useful as protein kinase inhibitors” (Vertex Pharmaceuticals Incorporated, priority 2000, dated 2003).
